Results published in patent publication US10047081B2, “BACE1 inhibitors” (Hoffmann-La Roche Inc., priority 2015, dated 2018).

Each molecule was assayed against T1, BACE1 (Homo sapiens, UniProt P56817) (assay: Cellular Aβ-lowering assay (Abeta 40 AlphaLISA, HEK293 APP cells)). Details: 18-20 hrs incubation, Aβ 40 in culture supernatant, read-out: BACE1 cell act. Aβ40 IC50.
T1 construct: endogenous in cells; host or cells: HEK293 APP cells
Assay type: cell-based
Protocol: Cellular Aβ-Lowering Assay:
The Abeta 40 AlphaLISA Assay can be used. The HEK293 APP cells were seeded in 96 well Microtiter plates in cell culture medium (Iscove's, plus 10% (v/v) fetal bovine serum, penicillin/streptomycin) to about 80% confluency and the compounds were added at a 3× concentration in ⅓ volume of culture medium (final DMSO concentration was kept at 1% v/v). After 18-20 hrs incubation at 37° C. and 5% CO2 in a humidified incubator, the culture supernatants were harvested for the determination of Aβ 40 concentrations using Perkin-Elmer Human Amyloid beta 1-40 (high specificity) Kit (Cat#AL275C).
In a Perkin-Elmer White Optiplate-384 (Cat#6007290), 2 ul culture supernatants were combined with 2 μl of a 10× AlphaLISA Anti-hAβAcceptor beads + Biotinylated Antibody Anti-Aβ 1-40 Mix (50 μg/mL/5 nM). After 1 hour room temperature incubation, 16 μl of a 1.25× preparation of Streptavidin (SA) Donor beads (25 μg/mL) were added and incubated for 30 minutes in the Dark. Light Emission at 615 nm was then recorded using EnVision-Alpha Reader. Levels of Aβ 40 in the culture supernatants were calculated as percentage of maximum signal (cells treated with 1% DMSO without inhibitor). The IC50 values were calculated using the Excel XLfit software.

T1 sequence (P56817 46-501): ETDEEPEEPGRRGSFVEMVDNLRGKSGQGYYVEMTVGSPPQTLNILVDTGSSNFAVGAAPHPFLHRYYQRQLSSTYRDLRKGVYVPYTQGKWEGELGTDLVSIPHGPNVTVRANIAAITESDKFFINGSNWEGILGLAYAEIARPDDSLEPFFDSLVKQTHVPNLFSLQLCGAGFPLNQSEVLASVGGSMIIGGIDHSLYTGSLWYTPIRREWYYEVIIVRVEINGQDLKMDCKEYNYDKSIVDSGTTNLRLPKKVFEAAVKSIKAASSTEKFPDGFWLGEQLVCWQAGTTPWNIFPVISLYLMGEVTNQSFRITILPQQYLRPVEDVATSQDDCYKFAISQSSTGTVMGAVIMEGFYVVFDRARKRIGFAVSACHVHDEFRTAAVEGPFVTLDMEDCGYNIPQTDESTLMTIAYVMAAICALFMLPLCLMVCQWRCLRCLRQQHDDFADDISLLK

Row | SMILES | IC50
1 | CN=[S@]1(=O)C[C@@](CF)(c2cc(-c3cc(-c4cnc(OC)cn4)no3)ccc2F)N=C(N)C1(C)C [Example 2, (1S,3S)-5-amino-3-(2-fluoro-5-(3-(5-methoxypyrazin-2-yl)isoxazol-5-yl)phenyl)-3-(fluoromethyl)-6,6-dimethyl-1-(methylimino)-3,6-dihydro-2H-1,4-thiazine 1-oxide 2,2,2-trifluoroacetate] | 141 nM
2 | CN=[S@@]1(=O)C[C@@](CF)(c2cc(-c3cc(-c4ncc(Cl)cn4)no3)ccc2F)N=C(N)C1(C)C [Example 3, (1R,3S)-5-amino-3-(5-(3-(5-chloropyrimidin-2-yl)isoxazol-5-yl)-2-fluorophenyl)-3-(fluoromethyl)-6,6-dimethyl-1-(methylimino)-3,6-dihydro-2H-1,4-thiazine 1-oxide 2,2,2-trifluoroacetate] | 89 nM
3 | CN=[S@@]1(=O)C[C@@](CF)(c2cc(-c3cc(-c4cnc(OCC(F)F)cn4)no3)ccc2F)N=C(N)C1(C)C [Example 4, (1R,3S)-5-amino-3-(5-(3-(5-(2,2-difluoroethoxy)pyrazin-2-yl)isoxazol-5-yl)-2-fluorophenyl)-3-(fluoromethyl)-6,6-dimethyl-1-(methylimino)-3,6-dihydro-2H-1,4-thiazine 1-oxide 2,2,2-trifluoroacetate] | 111 nM
4 | CN=[S@@]1(=O)C[C@@](C)(c2cc(-c3cc(-c4ncc(C#N)cn4)no3)ccc2F)N=C(N)C1(C)C [Example 8, 2-(5-(3-((1R,3R)-5-amino-3,6,6-trimethyl-1-(methylimino)-1-oxido-3,6-dihydro-2H-1,4-thiazin-3-yl)-4-fluorophenyl)isoxazol-3-yl)pyrimidine-5-carbonitrile 2,2,2-trifluoroacetate] | 22 nM
5 | CN=[S@@]1(=O)C[C@@](C)(c2cc(-c3cn(-c4ccc(Cl)cn4)nn3)ccc2F)N=C(N)C1(C)C [Example 9, (1R,3R)-5-amino-3-(5-(1-(5-chloropyridin-2-yl)-1H-1,2,3-triazol-4-yl)-2-fluorophenyl)-3,6,6-trimethyl-1-(methylimino)-3,6-dihydro-2H-1,4-thiazine 1-oxide 2,2,2-trifluoroacetate] | 17 nM
6 | CN=[S@@]1(=O)C[C@@](C)(c2cc(-c3cn(-c4ccc(C#N)cn4)nn3)ccc2F)N=C(N)C1(C)C [Example 10, 6-(4-(3-((1R,3R)-5-amino-3,6,6-trimethyl-1-(methylimino)-1-oxido-3,6-dihydro-2H-1,4-thiazin-3-yl)-4-fluorophenyl)-1H-1,2,3-triazol-1-yl)nicotinonitrile 2,2,2-trifluoroacetate] | 20 nM
7 | CN=[S@]1(=O)C[C@@](C)(c2cc(-c3cc(-c4cnc(OCC(F)F)cn4)no3)ccc2F)N=C(N)C1(C)C [Example 11, (1S,3R)-5-amino-3-(5-(3-(5-(2,2-difluoroethoxy)pyrazin-2-yl)isoxazol-5-yl)-2-fluorophenyl)-3,6,6-trimethyl-1-(methylimino)-3,6-dihydro-2H-1,4-thiazine 1-oxide 2,2,2-trifluoroacetate] | 51 nM
8 | CN=[S@]1(=O)C[C@@](C)(c2cc(-c3cc(-c4ncc(Cl)cn4)no3)ccc2F)N=C(N)C1(C)C [Example 12, (1S,3R)-5-amino-3-(5-(3-(5-chloropyrimidin-2-yl)isoxazol-5-yl)-2-fluorophenyl)-3,6,6-trimethyl-1-(methylimino)-3,6-dihydro-2H-1,4-thiazine 1-oxide 2,2,2-trifluoroacetate] | 19 nM
9 | CN=[S@]1(=O)C[C@@](CF)(c2cc(-c3cc(-c4ncc(OC)cn4)no3)ccc2F)N=C(N)C1(C)C [Example 13, (1S,3S)-5-amino-3-(2-fluoro-5-(3-(5-methoxypyrimidin-2-yl)isoxazol-5-yl)phenyl)-3-(fluoromethyl)-6,6-dimethyl-1-(methylimino)-3,6-dihydro-2H-1,4-thiazine 1-oxide] | 106 nM
10 | CN=[S@@]1(=O)C[C@@](CF)(c2cc(-c3cn(-c4ccc(C#N)cn4)nn3)ccc2F)N=C(N)C1(C)C [Example 14, 6-(4-(3-((1R,3S)-5-amino-3-(fluoromethyl)-6,6-dimethyl-1-(methylimino)-1-oxido-3,6-dihydro-2H-1,4-thiazin-3-yl)-4-fluorophenyl)-1H-1,2,3-triazol-1-yl)nicotinonitrile 2,2,2-trifluoroacetate] | 103 nM
11 | CN=[S@@]1(=O)C[C@@](CF)(c2cc(-c3cc(-c4ncc(Br)cc4C)no3)ccc2F)N=C(N)C1(C)C [Example 15, (1R,3S)-5-amino-3-(5-(3-(5-bromo-3-methylpyridin-2-yl)isoxazol-5-yl)-2-fluorophenyl)-3-(fluoromethyl)-6,6-dimethyl-1-(methylimino)-3,6-dihydro-2H-1,4-thiazine 1-oxide 2,2,2-trifluoroacetate] | 344 nM
12 | CN=[S@@]1(=O)C[C@@](CF)(c2cc(-c3cn(-c4ccc(Cl)cn4)nn3)ccc2F)N=C(N)C1(C)C [Example 16, (1R,3S)-5-amino-3-(5-(1-(5-chloropyridin-2-yl)-1H-1,2,3-triazol-4-yl)-2-fluorophenyl)-3-(fluoromethyl)-6,6-dimethyl-1-(methylimino)-3,6-dihydro-2H-1,4-thiazine 1-oxide 2,2,2-trifluoroacetate] | 156 nM
13 | CN=[S@@]1(=O)C[C@@](CF)(c2cc(-c3cc(-c4ncc(OC)cn4)no3)ccc2F)N=C(N)C1(C)C [Example 17, (1R,3S)-3-[2-fluoro-5-[3-(5-methoxypyrimidin-2-yl)isoxazol-5-yl]phenyl]-3-(fluoromethyl)-6,6-dimethyl-1-methylimino-1-oxo-2H-1,4-thiazin-5-amine] | 119 nM
14 | CN=[S@@]1(=O)C[C@@](C)(c2cc(-c3cc(-c4ncc(OCC(F)F)cn4)no3)ccc2F)N=C(N)C1(C)C [Example 18, (1R,3R)-3-[5-[3-[5-(2,2-difluoroethoxy)pyrimidin-2-yl]isoxazol-5-yl]-2-fluoro-phenyl]-3,6,6-trimethyl-1-methylimino-1-oxo-2H-1,4-thiazin-5-amine] | 13 nM
15 | CN=[S@]1(=O)C[C@@](C)(c2cc(-c3cc(-c4ncc(OCC(F)F)cn4)no3)ccc2F)N=C(N)C1(C)C [Example 19, (1S,3R)-3-[5-[3-[5-(2,2-difluoroethoxy)pyrimidin-2-yl]isoxazol-5-yl]-2-fluoro-phenyl]-3,6,6-trimethyl-1-methylimino-1-oxo-2H-1,4-thiazin-5-amine] | 27 nM
16 | CN=[S@@]1(=O)C[C@@](C)(c2cc(-c3cc(-c4ncc(OC)cn4)no3)ccc2F)N=C(N)C1(C)C [Example 20, (1R,3R)-5-amino-3-(2-fluoro-5-(3-(5-methoxypyrimidin-2-yl)isoxazol-5-yl)phenyl)-3,6,6-trimethyl-1-(methylimino)-3,6-dihydro-2H-1,4-thiazine 1-oxide] | 3 nM
17 | CN=[S@@]1(=O)C[C@@](C)(c2cc(-c3cc(-c4cnc(OCC(F)(F)F)cn4)no3)ccc2F)N=C(N)C1(C)C [Example 21, (1R,3R)-5-amino-3-(2-fluoro-5-(3-(5-(2,2,2-trifluoroethoxy)pyrazin-2-yl)isoxazol-5-yl)phenyl)-3,6,6-trimethyl-1-(methylimino)-3,6-dihydro-2H-1,4-thiazine 1-oxide 2,2,2-trifluoroacetate] | 9 nM
18 | CN=[S@@]1(=O)C[C@@](C)(c2cc(-c3cc(-c4cnc(OCC5CC5)cn4)no3)ccc2F)N=C(N)C1(C)C [Example 22, (1R,3R)-5-amino-3-(5-(3-(5-(cyclopropylmethoxy)pyrazin-2-yl)isoxazol-5-yl)-2-fluorophenyl)-3,6,6-trimethyl-1-(methylimino)-3,6-dihydro-2H-1,4-thiazine 1-oxide] | 61 nM
19 | CN=[S@@]1(=O)C[C@@](C)(c2cc(-c3cc(-c4cnc(O)cn4)no3)ccc2F)N=C(N)C1(C)C [Example 23, (1R,3R)-5-amino-3-(2-fluoro-5-(3-(5-hydroxypyrazin-2-yl)isoxazol-5-yl)phenyl)-3,6,6-trimethyl-1-(methylimino)-3,6-dihydro-2H-1,4-thiazine 1-oxide] | > 1000 nM
20 | [2H]C([2H])([2H])N=[S@@]1(=O)C[C@@](C)(c2cc(-c3cc(-c4ncc(OCC(F)(F)C(F)F)cn4)no3)ccc2F)N=C(N)C1(C)C [Example 25, (1R,3R)-3-[2-fluoro-5-[3-[5-(2,2,3,3-tetrafluoropropoxy)pyrimidin-2-yl]isoxazol-5-yl]phenyl]-3,6,6-trimethyl-1-oxo-1-(trideuteriomethylimino)-2H-1,4-thiazin-5-amine 2,2,2-trifluoroacetate] | 13 nM
21 | [2H]C([2H])([2H])N=[S@@]1(=O)C[C@@](C)(c2cc(-c3cc(-c4ncc(CC)cn4)no3)ccc2F)N=C(N)C1(C)C [Example 26, (1R,3R)-3-[5-[3-(5-ethylpyrimidin-2-yl)isoxazol-5-yl]-2-fluoro-phenyl]-3,6,6-trimethyl-1-oxo-1-(trideuteriomethylimino)-2H-1,4-thiazin-5-amine 2,2,2-trifluoroacetate] | 37 nM
22 | CN=[S@@]1(=O)C[C@@](C)(c2cc(-c3cc(-c4cnc(OC)cn4)no3)ccc2F)N=C(N)C12CCCC2 [Example 27, (6R,8R)-10-amino-8-(2-fluoro-5-(3-(5-methoxypyrazin-2-yl)isoxazol-5-yl)phenyl)-8-methyl-6-(methylimino)-6-thia-9-azaspiro[4.5]dec-9-ene 6-oxide 2,2,2-trifluoroacetate] | 139 nM
